Assay results: ChEMBL document CHEMBL5579898, “Between Theory and Practice: Computational/Experimental Integrated Approaches to Understand the Solubility and Lipophilicity of PROTACs” (J Med Chem, 2024)
In brackets after ≈: the same amount, converted by molar mass.

What was measured:
Format in all cases: physicochemical
[1] = Distribution coefficient, logD of compound in n-Octanol/PBS at pH 7.4 incubated for 30 mins under shaking condition by UV-Vis spectroscopic analysis; settings: for logD: octanol/water, pH 7.4, 0.5 h, BLD = below limit of detection; for logD at 0.5 h: n-octanol/PBS, pH 7.4
[2] = Kinetic solubility of the compound incubated for 60 mins under shaking condition by UHPLC-MS analysis; settings: 1 h
[3] = Distribution coefficient, logD of compound in n-Octanol/PBS at pH 7.4 incubated for 30 mins under shaking condition by UHPLC-MS analysis
[4] = Dissociation constant, pKa of the compound
[5] = Kinetic solubility of the compound incubated for 60 mins under shaking condition by UV-Vis spectroscopic analysis; settings: 1 h
[6] = Kinetic solubility of the compound in universal buffer at pH 7.4 incubated for 60 mins under shaking condition by UHPLC-MS analysis; settings: read-out: Kinetic_solubility
[7] = Kinetic solubility of the compound in PBS buffer at 50 mM pH 7.4 incubated for 60 mins under shaking condition by UHPLC-MS analysis; settings: read-out: Kinetic_solubility

SMILES: Cc1sc2c(c1C)C(c1ccc(Cl)cc1)=N[C@@H](CC(=O)NCCCCCCCCNc1cccc3c1C(=O)N(C1CCC(=O)NC1=O)C3=O)c1nnc(C)n1-2 (some centres not stated)
- logD [1]: Bld
- log(Kinetic_solubility) [2]: -7.33
- logD at 0.5 h [3]: 5.5
- pKa [4]: 7.98
- log(Kinetic_solubility) ([5]; BLD = below limit of detection): Bld
- solubility kinetic at 1 h [6]: 0.05 µM (≈ 0.0392 µg/mL)

SMILES: Cc1sc2c(c1C)C(c1ccc(Cl)cc1)=N[C@@H](CC(=O)NCCCN1CCN(CCCNc3cccc4c3C(=O)N(C3CCC(=O)NC3=O)C4=O)CC1)c1nnc(C)n1-2 (some centres not stated)
- logD at 0.5 h [1]: 3.3
- log(Kinetic_solubility) [2]: -5.15
- logD at 0.5 h [3]: 3.82
- pKa [4]: 4.49
- log(Kinetic_solubility) [5]: -4.15
- solubility kinetic at 1 h [6]: 71 µM (≈ 59.6 µg/mL)

SMILES: COc1ccc2c(c1)c(CC(=O)NCCN1CCN(C(=O)CCC(=O)N[C@H](C(=O)N3C[C@H](O)C[C@H]3C(=O)N[C@@H](C)c3ccc(-c4scnc4C)cc3)C(C)(C)C)CC1)c(C)n2C(=O)c1ccc(Cl)cc1
- logD [1]: Bld
- log(Kinetic_solubility) [2]: -5.7
- logD at 0.5 h [3]: 4.8
- log(Kinetic_solubility) [5]: -5.22

SMILES: Cc1ncsc1-c1ccc(CNC(=O)[C@@H]2C[C@@H](O)CN2C(=O)[C@@H](NC(=O)COCCOCCOCCOCCOCCOCC(=O)N[C@H](C(=O)N2C[C@H](O)C[C@H]2C(=O)NCc2ccc(-c3scnc3C)cc2)C(C)(C)C)C(C)(C)C)cc1
- logD at 0.5 h [1]: 3.09
- log(Kinetic_solubility) [2]: -3.24
- logD at 0.5 h [3]: 3
- log(Kinetic_solubility) [5]: -3.25

SMILES: O=C(COc1c(-c2csc(N3CCOCC3)n2)ccc(F)c1F)NCCOCCOCCOCCOCCNc1cccc2c1C(=O)N(C1CCC(=O)NC1=O)C2=O (configuration not stated)
- logD at 0.5 h [1]: 2.82
- log(Kinetic_solubility) [2]: -4.28
- logD at 0.5 h [3]: 2.82
- log(Kinetic_solubility) [5]: -4.28

SMILES: Cc1ncsc1-c1ccc([C@H](CC(=O)NCCCCCCNC(=O)COc2c(-c3csc(N4CCOCC4)n3)ccc(F)c2F)NC(=O)[C@@H]2C[C@@H](O)CN2C(=O)[C@@H](NC(=O)C2(F)CC2)C(C)(C)C)cc1
- logD [1]: Bld
- log(Kinetic_solubility) [2]: -5.14
- logD at 0.5 h [3]: 4.82
- log(Kinetic_solubility) [5]: -5

SMILES: CC(=O)c1c(C)c2cnc(Nc3ccc(N4CCN(CCOCCOCCOCCNC(=O)COc5cccc6c5C(=O)N(C5CCC(=O)NC5=O)C6=O)CC4)cn3)nc2n(C2CCCC2)c1=O (configuration not stated)
- logD at 0.5 h [1]: 2.17
- log(Kinetic_solubility) [2]: -5.05
- logD at 0.5 h [3]: 2.29
- log(Kinetic_solubility) [5]: -4.72

SMILES: CCOC(=O)c1c(C)n(Cc2ccccc2)c2ccc(OCCCCCCCCCCC(=O)N[C@H](C(=O)N3C[C@H](O)C[C@H]3C(=O)N[C@@H](C)c3ccc(-c4scnc4C)cc3)C(C)(C)C)cc12
- logD [1]: Bld
- log(Kinetic_solubility) ([2]; BLD = below limit of detection): Bld
- logD at 0.5 h [3]: 5.2
- log(Kinetic_solubility) ([5]; BLD = below limit of detection): Bld

SMILES: Cc1ncsc1-c1ccc([C@H](C)NC(=O)[C@@H]2C[C@@H](O)CN2C(=O)[C@@H](NC(=O)CCCCNC(=O)COc2c(-c3csc(N4CCOCC4)n3)ccc(F)c2F)C(C)(C)C)cc1
- solubility kinetic at 1 h [7]: 17 µM (≈ 15 µg/mL)
- logD [1]: Bld
- log(Kinetic_solubility) [2]: -4.72
- logD at 0.5 h [3]: 4.98
- log(Kinetic_solubility) [5]: -4.72
- solubility kinetic at 1 h [6]: 12 µM (≈ 10.6 µg/mL)

SMILES: Cc1ncsc1-c1ccc([C@H](C)NC(=O)[C@@H]2C[C@@H](O)CN2C(=O)[C@@H](NC(=O)CCCCCCOc2ccc3c(c2)c(C(=O)O)c(C)n3Cc2ccccc2)C(C)(C)C)cc1
- logD [1]: Bld
- log(Kinetic_solubility) [2]: -5.8
- logD at 0.5 h [3]: 5
- log(Kinetic_solubility) ([5]; BLD = below limit of detection): Bld

SMILES: Cn1c(=O)n(C)c2cc(CNCCOCCOCCNCC3CCN(c4ccc(C(=O)N[C@H]5CC[C@H](Oc6ccc(C#N)c(Cl)c6)CC5)nn4)CC3)ccc21
- logD at 0.5 h [1]: 2.45
- log(Kinetic_solubility) [2]: -3.06
- logD at 0.5 h [3]: 2.52
- log(Kinetic_solubility) [5]: -3.07

SMILES: Cc1ncsc1-c1ccc(CNC(=O)[C@@H]2C[C@@H](O)CN2C(=O)[C@@H](NC(=O)CCCCOCCCCCOCCCCCCNc2cccc3c2C(=O)N(C2CCC(=O)NC2=O)C3=O)C(C)(C)C)cc1 (some centres not stated)
- logD [1]: Bld
- log(Kinetic_solubility) [2]: -7.05
- logD at 0.5 h [3]: 5.2
- log(Kinetic_solubility) ([5]; BLD = below limit of detection): Bld

SMILES: Cc1ncsc1-c1ccc([C@H](C)NC(=O)[C@@H]2C[C@@H](O)CN2C(=O)[C@@H](NC(=O)CNCCOCCOc2c(-c3csc(N4CCOCC4)n3)ccc(F)c2F)C(C)(C)C)cc1
- logD [1]: Bld
- log(Kinetic_solubility) [2]: -5.22
- logD at 0.5 h [3]: 5.2
- log(Kinetic_solubility) [5]: -4.82

SMILES: Cc1ncsc1-c1ccc(CNC(=O)[C@@H]2C[C@@H](O)CN2C(=O)[C@@H](NC(=O)COCCOCCOCC(=O)N[C@H](C(=O)N2C[C@H](O)C[C@H]2C(=O)NCc2ccc(-c3scnc3C)cc2)C(C)(C)C)C(C)(C)C)cc1
- logD at 0.5 h [1]: 3.7
- log(Kinetic_solubility) [2]: -3.98
- logD at 0.5 h [3]: 3.19
- log(Kinetic_solubility) [5]: -3.93
